Data reported in US6372726B1, “Methods of cancer treatment using NAALADase inhibitors” (Guilford Pharmaceuticals Inc., priority 1996, dated 2002).
Where two headings read alike, the source gives them in different places. One block for each compound: values may come before it.

How the values were obtained:
NAALADase = NAALADase (UniProt P70627); experiment: In vitro assay of NAALADase activity ([3H]Glu liberated from [3H]NAAG, synaptosomal protein); format: biochemical; details: for NAALADase inhibiting activity (in words): comparison of Table III(a) compounds
Procedure: The following compounds were tested for in vitro inhibition of NAALADase activity.
Substrate and product were resolved by anion-exchange liquid chromatography. […] Quisqualate (100 μM) was included in parallel assay tubes to confirm the specificity of the measurements.

[1] = test system: LNCAP cells (a prostate cancer cell line); experiment: In vitro cancer assay: 3H-thymidine incorporation in LNCAP cells; format: cell-based, human; details: for 3H-Thymidine Incorporation (dpm/well): LNCAP cells, 7 days
Procedure: On the 7th day, the cells are pulsed with 3H-thymidine for 4 hours, harvested and measured for radioactivity. Values represent means +/−SEM of 6 separate cell wells for each treatment. All experiments are performed at least twice.
Cells are grown in RPMI-1640 media supplemented with 10% heat-inactivated fetal calf serum, 2 mM-glutamine, 100 units/ml penicillin, and 100 μg/ml streptomycin (Paragon) in a humidified incubator at 37° C. in a 5% CO2/95% O2 atmosphere.
The cells are suspended at 1×10^3 cells/ml in RPMI-1640 media and seeded into 24-well plates at 500 μl per well. […] On days 3, 5 and 7, media and drug are refreshed. On the 8th day following seeding, each well is pulsed with 1 μCi ^3H-thymidine (New England Nuclear) for 4 hours. Media is then removed and the wells washed 2 times with phosphate buffered saline (pH=7.4). […] 5 ml UltimaGold (Packard) scintillation cocktail is added and radioactivity is quantitated using a Beckman LS6001 scintillation counter.

[2] = test system: R3327 rat prostate tumors (Dunning R3327-G prostate cancer cells); experiment: In vivo rat Dunning R3327 model
Procedure: Referring now to FIGS. 5 and 6, Dunning R3327-G prostate cancer cells were injected subcutaneously into both flanks of syngeneic male rats. […] In the second study, the anti-tumor growth activity of 2-[[phenylmethyl)hydroxyphosphinyl]methyl]pentanedioic acid was tested following daily intra-tumoral injections of the drug (0.1,1,10,100 μg) after the tumor reached an initial volume of 80-290 mm^3. Tumor volumes were subsequently monitored for 42 days after the beginning of drug treatment.
R3327-G is a cell line derived from an androgen-sensitive papillary adenocarcinoma derived from a spontaneously forming tumor in the rat prostate. […]
(§1) After the animals were released from quarantine, the rats were injected subcutaneously in both flanks with 1×10^7 R3327-G cells (0.1-ml injection volume). Tumor dimensions and body weight were measured twice weekly. Vernier calipers were used to measure tumors in three planes, and tumor volume (V) was calculated as follows: V=π(x×y×z)/6, where x, y, and z were the tumor measurements minus skin thickness. […]
(§2) The tumors were measured twice weekly. The mean tumor volume for each group was calculated for each time point. Comparisons between groups at specific times were made using an unpaired, two-tailed t-test, and the results were analyzed using analyzed of variance (ANOVA). […]

[3] = test system: LNCAP human prostate tumors; experiment: In vivo LNCaP tumor xenograft assay; parameters: species or system mice; details: daily intratumoral injection (0.25 μg/day), six weeks, p=0.04
Procedure: Referring now to FIGS. 3 and 4, LNCaP human prostate cancer cells were injected subcutaneously into the right flank of male nude mice. […] The 2-(phosphonomethyl)pentanedioic acid polymer was changed two times per week. Tumor volumes were monitored for 42 days after the beginning of treatment.
LNCaP is a human prostate cancer cell line that was established in 1973 from a […] of a patient who had been treated with 5-FU, doxorubicin, methotrexate, and CTX in the 3 months before the cell line was initiated. This line is androgen receptor positive and has been used in screening anticancer drugs that are targeted as hormone antagonists. […]
as §1, with “mice” for “rats”, “the right flank” for “both flanks”, “LNCaP” for “R3327-G”, “cells in Matrigel™” for “cells”, “volume)” for “volume).”
as §2, with “The tumor” for “The tumors”, “twice weekly for at least 8 weeks after the first treatment.” for “twice weekly.”, “using analysis” for “using analyzed”

mice = experiment: In vivo toxicity of NAALADase inhibitors in mice; details: doses of 1 to 500 mg/kg, observed 5 consecutive days
Description: The mice were subsequently observed two times per day for 5 consecutive days.

[4] = Table III(c), read-out: Ki Value

Ki (NAALADase; Table III(b), read-out: Ki): 0.148 µM
Structure (SMILES): CCCCP(=O)(O)CC(CCC(=O)O)C(=O)O (stereo not shown)

Ki (NAALADase; [4]): 0.038 µM
Structure (SMILES): O=C(O)CCC(CP(=O)(O)Cc1c(F)c(F)c(F)c(F)c1F)C(=O)O (stereo not shown)

NAALADase inhibiting activity (in words) (NAALADase): lower NAALADase inhibiting activity
Structure (SMILES): O=C(O)CCC(CP(=O)(O)CCC(=O)O)C(=O)O (stereo not shown) [2-[[2-carboxyethyl)hydroxyphosphinyl]-methyl]pentanedioic acid)]

Ki (NAALADase; [4]): 0.175 µM
Structure (SMILES): O=C(O)CCC(CP(=O)(O)Cc1ccccc1F)C(=O)O (stereo not shown)

Structure (SMILES): O=C(O)CCC(CP(=O)(O)O)C(=O)O (stereo not shown) [2-(phosphonomethyl)pentanedioic acid]
LNCAP cell proliferation (incorporation of [3H]thymidine), FIG. 2 ([1]; 7-day treatment, 100 pM to 10 nM): sharp dose-dependent decrease | 3H-Thymidine Incorporation (dpm/well) ([1]; 10 pM): 3078 ± 1006 dpm/well | 3H-Thymidine Incorporation (dpm/well) ([1]; 100 pM): 2062 ± 595 dpm/well | 3H-Thymidine Incorporation (dpm/well) ([1]; 1 nM): 1001 ± 52 dpm/well | 3H-Thymidine Incorporation (dpm/well) ([1]; 10 nM): 664 ± 366 dpm/well | Ki (NAALADase; Table III(a)): 0.000275 ± 8e-05 µM | NAALADase inhibiting activity (in words) (NAALADase): high level of NAALADase inhibiting activity | Ki (NAALADase; text restating Table III(a)): 0.00027 µM | Potency relative to previously described inhibitors (NAALADase; times more potent): > 1000 times | Tumor growth, FIG. 5 ([2]; daily subcutaneous injections 1, 3, 10 and 30 mg/kg, 84 days): tumor growth slowed | Mean tumor volume versus control group, FIG. 3 [3]: statistically significant difference | Toxicological effect in mice (in words) (mice): non-toxic

Structure (SMILES): O=C(O)CCC(CP(=O)(O)Cc1ccccc1)C(=O)O (stereo not shown) [2-[(benzylhydroxyphosphinyl)methyl]pentanedioic acid]
Mean tumor volume relative to start of treatment (V/Vo) versus control group, FIG. 6 ([2]; daily intra-tumoral injections of 1 μg, 2.5 weeks, p=0.02): statistically significant difference

Ki (NAALADase; Table III(b), read-out: Ki): 0.19 µM
Structure (SMILES): Cc1cccc(P(=O)(O)CC(CCC(=O)O)C(=O)O)c1 (stereo not shown)

Structure (SMILES): O=C(O)CC(CP(=O)(O)O)C(=O)O (stereo not shown) [2-(phosphonomethyl)succinic acid, reference compound]
NAALADase inhibiting activity (in words) (NAALADase): much lower NAALADase inhibiting activity
